For one series, the system named is phosphorylation of 4EBP1. The experiment in a line: Immunoblotting of phosphorylated 4EBP1. It counts as cell-based, human. As to conditions: CD44high cells; 48 h. The procedure: (§1) Cell protein lysates (20–30 μg) were separated on NuPAGE 4–12% Bis-Tris gels (Novex) electrophoretically and transferred to polyvinylidene difluoride membranes (Roche). Membranes were blocked for 1 h with 5% Bovine Serum Albumin in Tris-buffered saline containing 0.05% Tween 20 and incubated overnight with primary antibody. The following primary antibodies were used: anti-CD44 (Cell signaling, #3578), anti-vimentin (Abcam, ab92547), anti-total S6K (Cell signaling, # 2708), anti-phosphorylated S6K (Cell signaling, #9234), anti-total 4EBP-1 (Cell signaling, #9644), anti-phosphorylated 4EBP-1(Cell signaling, #2855) and anti-PARP (Cell signaling # 9532) Anti-GAPDH (Santa Cruz Biotechnology, sc-32233) and anti-β actin (Cell Signaling, 4970S) antibodies were used as loading controls. A secondary anti-rabbit (Cell Signaling) or anti-mouse immunoglobulin G (IgG) antibody peroxidase conjugate (GE Healthcare) was detected using ECL Western Blotting Analysis System (Amersham Biosciences).

Another series relates to SNU423 cells. The series can be described thus: Wound healing (in vitro migration) assay. It counts as cell-based, human. The following applies: 500 nM; 30 h migration. The procedure:
SNU423 cells were treated with either INK128 or everolimus at 500 nM or vehicle control (1% DMSO). At 24 h after treatment or transfection, 70 μl of the treated cells (3 × 10^5 cells/mL) was placed into each well of ibidi culture-insert (ibidi, LLC). After an overnight incubation, the culture insert was removed to create a cell-free gap in a monolayer of the cells. The gap closure area was photographed and analyzed by Tscratch software. Wound healing assay was further performed using Huh7 and PLC/PRF/5 cells to determine the effects of CD44 overexpression of migration. The percentage of the gap closure area based on the initial point at time zero was calculated from at least two independent experiments.

The test system of the next series is phosphorylation of S6K. The series can be described thus: Immunoblotting of phosphorylated S6K. As to conditions: CD44high cells; 48 h. It is filed as cell-based, human. Here is the method: as §1
Series [1] deals with CD44 and vimentin protein expression in SNU423 cells. The experiment in a line: Immunoblotting of CD44 and vimentin protein. The following applies: 48 h; SNU423 (rapalogs also SNU449). It is filed as cell-based, human. The procedure:
as §1
(In general: A western blot detects proteins with antibodies after separation by electrophoresis.)

The subject of series [2] is Huh7CD44, PLC/PRF/5CD44, Huh7EV and PLC/PRF/5EV cells. The series can be described thus: Cell proliferation, WST-1 assay, CD44 overexpressing versus empty vector cells. As to conditions: 72 h. It is filed as cell-based, human. Here is the method:
An optimized DNA fragment for CD44 overexpression was designed and ordered from Invitrogen using GeneArt® Gene Synthesis. The optimized DNA fragment was cloned using GeneArt® Seamless Cloning technology into a p-EGFP-C1 vector graciously obtained from Matthew Wood's Lab. Huh7 and PLC/PRF/5 cells (CD44low) were transfected with 1500 ng of either CD44 vector or empty vector using Lipofectamine 3000 (Invitrogen). Forty-eight h after transfection, cells were selected using 150 μg/ml hygromycin (Life Technologies). Western blotting was used to confirm successful transfection and expression of CD44.
Background: Tetrazolium assays rely on reduction of a dye to a coloured formazan, in cell work by metabolically active cells.

Series [3] deals with CD44 or vimentin mRNA in SNU423 cells. The experiment in a line: qRT-PCR of CD44 and vimentin mRNA. It counts as cell-based, human. As to conditions: 500 nM; 48 h. The procedure:
Total RNA was isolated from ATP-competitive mTOR inhibitor treated cells using miRNeasy® Mini kit (Qiagen). cDNA was synthesized according to the manufacturer's protocol (Invitrogen). Five hundred ng of total RNA was used to synthesize cDNA using random primers. cDNA was analyzed for gene expression using gene specific primers (IDT) and the Express SYBR® GreenER qPCR super mix (Invitrogen). Data were normalized to 18S rRNA and the relative expression of genes was presented using the comparative CT method. The following primers were used; CD44: 5′-TGCAGTT […]-3′ (forward) and 5′-[…]-3′ (reverse), Vimentin: 5′-CAGC […]-3′ (forward) and 5′-ATCCT […]-3′ (reverse), 18S: 5′-GT […]-3′(forward) and 5′-CCAT […]-3′(reverse)

Series [4] deals with sorafenib resistant Huh7 cells. The experiment in a line: Cell proliferation, WST-1 assay, sorafenib resistant Huh7. It is filed as cell-based, human. The following applies: 72 h. Here is the method:
A sorafenib-resistant Huh7 cell line was established by long term exposure to incremental concentrations of sorafenib (LC Laboratories, USA) as reported. Following six months of culture in 10 cm cell culture dishes, resistant cells were diluted out in 96 well plates and single cell clones were selected and scaled up to be used in further experiments.

Series [5] can be described thus: INK128 plasma pharmacokinetic study. It counts as in vivo, ICR mice. The procedure:
All animal experiments were carried out under protocols approved by the Institutional Laboratory Animal Care and Use Committee at the Ohio State University. Imprinting control region (ICR) female mice (6 weeks) were obtained from Charles Rivers (Wilmington, MA, USA). Mice were acclimated in the animal housing facility for one week before the start of the study. After overnight fasting, INK128 (3 mg/kg) was administered by oral gavage (PO) in 10% DMSO. At different time points, mice were euthanized by carbon dioxide asphyxiation, and blood was immediately collected by cardiac puncture into lithium heparinized tubes (BD Microtainer, Becton, Dickson and Company, NJ, USA). Blood samples were centrifuged at 6000 × g for 5 min at 4°C. Plasma was collected and kept on dry ice before being stored at −80°C until analysis.
Plasma samples were thawed on ice. Blank mouse plasma was used for standard curves. Plasma aliquots (100 ul) were spiked with hesperetin (10 ul, 5000 ng/ml) as an internal standard and mixed by vortexing. Drugs were extracted with simple protein precipitation using cold acetonitrile, and the mixture was centrifuged at 13000 × g for 10 min. The supernatant was collected and dried under nitrogen. Dried samples were reconstituted with 200 ul 1% formic acid. Samples were analyzed using liquid chromatography–tandem mass spectrometry (LC-MS/MS) system consisting of Thermo Accela UHPLC pump, Thermo PAL autosampler, and Thermo TSQ Discovery triple quadruple mass spectrometer (Thermo, Waltham, MA, USA). Chromatographic separation was done using an Agilent Zobrax Extend C-18 column. Linear gradient elution was used at a flow rate of 400 ul/min, with a mobile phase of […] and 95% acetonitrile, modified with 0.2% formic acid. Non-compartmental analysis of the pharmacokinetic parameters as well as compartmental model fitting of the data was carried using Phoenix® 7.0 (Certara, New Jersey, USA).

For series [6], the system named is SK-Hep1 subcutaneous xenografts. The series can be described thus: SK-Hep1 xenograft efficacy study. It is filed as in vivo, athymic nude mice. The procedure: Immunodeficient athymic nude male mice (8 weeks) were obtained from Charles River laboratories and kept in the University's animal housing facility. SK-Hep1 cells were prepared from a low-passage, logarithmically growing population of cells. SK-Hep1 (3 × 10^6 cells) were suspended in 150 ul of Matrigel (Corning, NY, USA) and injected subcutaneously into the right flank of the mice. Three weeks after implantation, tumor sizes were measured using a Fisherbrand™ Traceable™ Digital Caliper (Thermo), the animals were randomized based on tumor size, and treatment was initiated. Tumor size measurements were taken twice a week throughout the treatment period.
Athymic nude mice bearing SK-Hep1 tumors were randomized into four groups (n = 10 per group); vehicle, sorafenib, INK128 and combination. Sorafenib (10 mg/kg) was prepared as a 4× stock solution in cremophor EL:ethanol (50:50), and diluted using water on the day of the treatment. Vehicle and sorafenib groups received their respective treatments every day via oral gavage. INK128 (3 mg/kg) was prepared in 10% DMSO and dosed via oral gavage every other day. The combination group received a daily dose of sorafenib (10 mg/kg) along with INK128 (3 mg/kg) every other day. Mice were monitored every day, and body weight and tumor size measurements were recorded twice a week throughout the treatment period. Tumor volume was calculated using the equation V= ½ × L × W^2. Treatment was continued for 24 days after which the animals were euthanized. Tumor growth is represented as percentage change from baseline tumor volume.

For series [7], the system named is CD44high HCC cells (SNU423, SNU449, SK-Hep-1). The series can be described thus: Cell proliferation, WST-1 assay, CD44high HCC cells. It is filed as cell-based, human.
In series [8] the test system is HCC cell lines (SNU423, SNU449 and Huh7). The series can be described thus: Cell proliferation, WST-1 assay, three HCC cell lines. It is filed as cell-based, human. As to conditions: 48 h.
The mark [9] stands for this setting: 3 mg/kg oral gavage, single dose, plasma.
The mark [10] stands for this setting: female, ICR, mouse, plasma, po, 3 mg/kg, 3 mg/kg oral gavage, single dose.
The mark [11] stands for this setting: female, ICR, mouse, 3 mg/kg oral gavage, single dose, plasma.

As a reminder, the Cmax is the highest concentration seen after dosing. What is called Tmax is the time from dosing to the highest level. A word on the AUC(0-t): it is the area under the concentration-time curve up to a stated or last time point. A high value points to high exposure. One may read the half-life as how long it takes for the measured level to halve. A high value points to slow loss. For the compound `CC(C)n1nc(-c2ccc3oc(N)nc3c2)c2c(N)ncnc21` [INK128], the “phosphorylation of 4EBP1” value in the series on phosphorylation of 4EBP1 is “inhibited”. In the series with SNU423 cells, the “decrease of cell movement compared to vehicle control” value amounted to 50%. The “phosphorylation of S6K” value in the series on phosphorylation of S6K was “inhibited”. The “CD44 and vimentin protein expression” value in series [1] is listed as “great reduction”. Moreover, the “anti-proliferative response of CD44 expressing cells versus empty vector cells” value in [2] (500 nM) was “responded better”. The “CD44 or vimentin mRNA” value in series [3] is reported as “no change”. The “anti-proliferative effects versus wildtype CD44low Huh7 cells” value in series [4] is on record as “greater anti-proliferative effects”. Also, in series [5] (3 mg/kg oral gavage), the “time with drug concentrations greater than 100 nM” value is “approximately 16 h”. Further, in series [5] (setting [9]), the CL is on record as 0.000582 L/min and the peak level (Cmax) was 2030 nM. Further, the tolerability entry in series [5] (3 mg/kg oral, all animals of the pharmacokinetic study) is on record as “well tolerated”. Moreover, in [5] (setting [10]), the peak concentration (Cmax) was 2030 nM and the Tmax was at most 0.25 h. Moreover, in [5] (female, ICR, mouse, plasma, 3 mg/kg oral gavage, 24 h, read-out: plasma concentration 24 h post dose), the concentration at 24 h was determined as 24.6 nM. In series [5] (setting [11]), this compound showed an AUC(0-t) of 7.38 µM·h and a half-life of 1.81 h. The “reduction of tumor burden compared to vehicle control or sorafenib alone” value in series [6] (3 mg/kg every other day oral) was “up to 30%”. Besides, the “reduction in tumor volume (from baseline)” value in series [6] (INK128 3 mg/kg every other day oral, alone or with sorafenib 10 mg/kg daily, 24 days) worked out at 24%. Also, in series [7] (72 h, CD44low: Huh7, PLC/PRF/5, HepG2), the “reduction of proliferation in CD44high compared to CD44low cells” value is reported as “more effective”. For the same compound, the inhibition at 0.1 µM in series [7] (Homo sapiens, 100 nM, CD44high cells (Figure 1C), read-out: inhibition in cellular proliferation) is 60%. Also, the “anti-proliferative activity versus allosteric mTOR inhibitors” value in [7] (SNU423 and SNU449 cells, 48 h) is “better anti-proliferative activity than rapamycin and everolimus”.
In the case of `CO[C@H]1C[C@@H]2CC[C@@H](C)[C@@](O)(O2)C(=O)C(=O)N2CCCC[C@H]2C(=O)O[C@H]([C@H](C)C[C@@H]2CC[C@@H](OCCO)[C@H](OC)C2)CC(=O)[C@H](C)/C=C(\C)[C@@H](O)[C@@H](OC)C(=O)[C@H](C)C[C@H](C)/C=C/C=C/C=C/1C` [everolimus], in the series with phosphorylation of 4EBP1, the “phosphorylation of 4EBP1” value was “did not inhibit”. Also, in the series with SNU423 cells, the “decrease of cell movement compared to vehicle control” value is 20%. In addition, in the series with phosphorylation of S6K, the “phosphorylation of S6K” value is on record as “blocked”. Besides, in series [1], the “CD44 and vimentin protein expression” value is “did not alter”. For the same compound, in series [8] (even at 5000 nM), the “proliferation (lowest level reached)” value is reported as at least 40%.
On to `CO[C@H]1C[C@@H]2CC[C@@H](C)[C@@](O)(O2)C(=O)C(=O)N2CCCC[C@H]2C(=O)O[C@H]([C@H](C)C[C@@H]2CC[C@@H](O)[C@H](OC)C2)CC(=O)[C@H](C)/C=C(\C)[C@@H](O)[C@@H](OC)C(=O)[C@H](C)C[C@H](C)/C=C/C=C/C=C/1C` [rapamycin], for which the “phosphorylation of 4EBP1” value in the series with phosphorylation of 4EBP1 is given as “did not inhibit”. Moreover, in the series on phosphorylation of S6K, the “phosphorylation of S6K” value is recorded as “blocked”. In series [1], the “CD44 and vimentin protein expression” value is “did not alter”. Also, in series [8], the “proliferation (lowest level reached)” value is given as at least 40%.
Regarding `CNC(=O)c1cc(Oc2ccc(NC(=O)Nc3ccc(Cl)c(C(F)(F)F)c3)cc2)ccn1` [sorafenib], in series [2], the “ability to reduce proliferation as a function of CD44 protein” value is recorded as “no difference”. Further, the “tumor size increase compared to baseline” value in series [6] (10 mg/kg daily oral gavage, 24 days) is recorded as 46%. For the same compound, in series [6] (10 mg/kg daily oral, not significant), the “inhibition in tumor growth compared to vehicle control” value is given as “approximately 15%”.

The values above are taken from paper PMC5995255, “CD44 positive and sorafenib insensitive hepatocellular carcinomas respond to the ATP-competitive mTOR inhibitor INK128” (Oncotarget, 2018).
